# Experimental data published in patent EP0354047A2, “Herbicidal method using atrazine” (MAY & BAKER LIMITED, priority 1988, dated 1990).
# What was measured:
# [1] = tested on: Eleusine indica; assay: Experiment 2: glasshouse experiment, seedlings at 4-leaf stage, percentage phytotoxicity after 19 days; type: in vivo
# Experimental: Agricultural surfactant - nonylphenol ethylene oxide condensate containing 9 moles ethylene oxide (in a commercial composition) was added to all spray dilutions to give 0.2% v/v concentration. […] The ED50 values were as follows:- The results were then used to plot an isobole with a "two-sided effect" according to the methods of […] op. cit. The isobole produced, shown hereinafter in Figure 1 was clearly a type III curve ([…]., page 75), characteristic of synergism.
# [2] = tested on: Amaranthus retroflexus; assay: Experiment 3: glasshouse, post-emergence, fresh weight after 19 days, % inhibition of growth; type: in vivo; conditions: 2-4 leaves
# Experimental: (§1) A series of experiments was carried out to determine the nature of the biological interaction between atrazine and five compounds of general formula I on a range of weed species. […] The growth stages of the plants at spraying are also presented with the results. Agricultural surfactant (nonyl phenol ethylene oxide condensate containing 9 moles ethylene oxide marketed as 'Agral') was added to all spray dilutions to give 0.2% v/v concentration. […] After 19 days the fresh weight of vegetation in each pot was determined. […] E = […]00003:character} where E, X and Y are percentage inhibition of growth. In addition, the ED50 or ED90 values (the application rates giving 50% or 90% inhibition of growth, respectively) were calculated from the results for the piperidinedione alone and with increasing rates of atrazine.
# [3] = tested on: Bidens pilosa; assay: as above; type: in vivo; conditions: 2 leaves
# Experimental: as §1
# [4] = tested on: Brassica kaber; assay: as above; type: in vivo; conditions: 2-3 leaves
# Experimental: as §1
# [5] = tested on: Digitaria sanguinalis; assay: as above; type: in vivo; conditions: 3 leaves
# Experimental: as §1
# [6] = tested on: Eleusine indica; assay: as above; type: in vivo; conditions: 3 leaves
# Experimental: as §1
# [7] = tested on: Sesbania exactata; assay: as above; type: in vivo; conditions: 2 leaves
# Experimental: as §1
# [8] = tested on: Solanum nigrum; assay: as above; type: in vivo; conditions: 1-2 leaves
# Experimental: as §1
# [9] = tested on: Xanthium strumarium; assay: as above; type: in vivo; conditions: 2 leaves
# Experimental: as §1
# [10] = tested on: maize var.Irla; assay: Experiment 5: glasshouse, crop plants at 3 leaf stage, percentage phytotoxicity after 12 days; conditions: for % crop phytotoxicity Maize (3 leaves): Atrazine 0 g/ha
# Experimental: An experiment was carried out to determine the biological interaction between atrazine and Compound 74 on maize. A wide range of dose rates of atrazine i.e. 250, 500, 1000 and 2000 g/ha (in a commercial suspension concentrate formulation containing 500g/l w/v atrazine) and of Compound 74 i.e. 31, 63, 125, 250, 1000 and 2000 g/ha (in a composition according to Example 2 as described hereinafter) were applied in a spray volume of 290litres/ha to four replicate 10cm square plastic plant pots of loam soil containing one maize plant, at the 3 leaf growth stage. Agricultural surfactant ('Agral') was added to the spray dilutions to give 0.2%v/v concentration.
# After spraying the pots were arranged in randomised blocks in a glasshouse and watered as necessary. After 12 days the plants were assessed for percentage phytotoxicity (reduction in green area compared with unsprayed plants) (0 = no effect 100 = complete destruction).
# E = X + Y […] where E, X and Y are percentage phytotoxicity.
# The ED values were then used to plot an isobole according to the method of P.M.L. Tammes op cit. The results of percentage phytotoxicity, the ED₂₀ values calculated from them and the calculated expected value are given in Table 9.
compound,measurement,setting,value
"O=C1CCNC(=O)C1C(=O)c1ccc(C(F)(F)F)cc1[N+](=O)[O-] (stereo not drawn) [Compound 74, 3-(2-nitro-4-trifluoromethylbenzoyl)piperidine-2,4-dione]",percentage phytotoxicity,[1]; Compound 74 16 g/ha alone,13%
same,percentage phytotoxicity,[1]; Compound 74 31 g/ha alone,12%
same,percentage phytotoxicity,[1]; Compound 74 63 g/ha alone,40%
same,percentage phytotoxicity,[1]; Compound 74 125 g/ha alone,50%
same,percentage phytotoxicity,[1]; Compound 74 250 g/ha alone,77%
same,ED₅₀,"[1]; Compound 74 alone, 50% phytotoxicity",101 g/ha
same,inhibition at 2 g/ha,"[2]; Amaranthus retroflexus, post-emergence, Compound 74 2 g/ha alone",27%
same,inhibition at 4 g/ha,"[2]; Amaranthus retroflexus, post-emergence, Compound 74 4 g/ha alone",47%
same,inhibition at 8 g/ha,"[2]; Amaranthus retroflexus, post-emergence, Compound 74 8 g/ha alone",69%
same,inhibition at 16 g/ha,"[2]; Amaranthus retroflexus, post-emergence, Compound 74 16 g/ha alone",76%
same,inhibition at 31 g/ha,"[2]; Amaranthus retroflexus, post-emergence, Compound 74 31 g/ha alone",86%
same,inhibition at 63 g/ha,"[2]; Amaranthus retroflexus, post-emergence, Compound 74 63 g/ha alone",90%
same,ED₉₀,[2]; Compound 74 alone,ED₉₀(g/ha) 46.43
same,inhibition at 8 g/ha,"[3]; Bidens pilosa, post-emergence, Compound 74 8 g/ha alone",0%
same,inhibition at 16 g/ha,"[3]; Bidens pilosa, post-emergence, Compound 74 16 g/ha alone",0%
same,inhibition at 31 g/ha,"[3]; Bidens pilosa, post-emergence, Compound 74 31 g/ha alone",0%
same,inhibition at 125 g/ha,"[3]; Bidens pilosa, post-emergence, Compound 74 125 g/ha alone",48%
same,inhibition at 163 g/ha,"[3]; Bidens pilosa, post-emergence, Compound 74 163 g/ha alone",15%
same,inhibition at 250 g/ha,"[3]; Bidens pilosa, post-emergence, Compound 74 250 g/ha alone",75%
same,ED₅₀,[3]; Compound 74 alone,ED₅₀(g/ha)141.27
same,ED₅₀,[4]; Compound 74 alone,ED₅₀(g/ha) 10.3
same,inhibition at 2 g/ha,"[4]; Mutarda arvensis, post-emergence, Compound 74 2 g/ha alone",19%
same,inhibition at 4 g/ha,"[4]; Mutarda arvensis, post-emergence, Compound 74 4 g/ha alone",20%
same,inhibition at 8 g/ha,"[4]; Mutarda arvensis, post-emergence, Compound 74 8 g/ha alone",32%
same,inhibition at 16 g/ha,"[4]; Mutarda arvensis, post-emergence, Compound 74 16 g/ha alone",61%
same,inhibition at 31 g/ha,"[4]; Mutarda arvensis, post-emergence, Compound 74 31 g/ha alone",72%
same,inhibition at 63 g/ha,"[4]; Mutarda arvensis, post-emergence, Compound 74 63 g/ha alone",96%
same,ED₉₀,[5]; Compound 74 alone,ED₉₀ (g/ha) 75.46
same,inhibition at 16 g/ha,"[5]; Digitaria sanguinalis, post-emergence, Compound 74 16 g/ha alone",55%
same,inhibition at 31 g/ha,"[5]; Digitaria sanguinalis, post-emergence, Compound 74 31 g/ha alone",75%
same,inhibition at 63 g/ha,"[5]; Digitaria sanguinalis, post-emergence, Compound 74 63 g/ha alone",88%
same,inhibition at 125 g/ha,"[5]; Digitaria sanguinalis, post-emergence, Compound 74 125 g/ha alone",96%
same,inhibition at 250 g/ha,"[5]; Digitaria sanguinalis, post-emergence, Compound 74 250 g/ha alone",99%
same,inhibition at 500 g/ha,"[5]; Digitaria sanguinalis, post-emergence, Compound 74 500 g/ha alone",100%
same,ED₅₀,[6]; Compound 74 alone,ED₅₀ (g/ha) 72.43
same,inhibition at 16 g/ha,"[6]; Eleusine indica, post-emergence, Compound 74 16 g/ha alone",0%
same,inhibition at 31 g/ha,"[6]; Eleusine indica, post-emergence, Compound 74 31 g/ha alone",26%
same,inhibition at 63 g/ha,"[6]; Eleusine indica, post-emergence, Compound 74 63 g/ha alone",55%
same,inhibition at 125 g/ha,"[6]; Eleusine indica, post-emergence, Compound 74 125 g/ha alone",84%
same,inhibition at 250 g/ha,"[6]; Eleusine indica, post-emergence, Compound 74 250 g/ha alone",96%
same,inhibition at 500 g/ha,"[6]; Eleusine indica, post-emergence, Compound 74 500 g/ha alone",95%
same,ED₉₀,[7]; Compound 74 alone,ED₉₀(g/ha)375.45
same,inhibition at 8 g/ha,"[7]; Sesbania, post-emergence, Compound 74 8 g/ha alone",65%
same,inhibition at 16 g/ha,"[7]; Sesbania, post-emergence, Compound 74 16 g/ha alone",73%
same,inhibition at 31 g/ha,"[7]; Sesbania, post-emergence, Compound 74 31 g/ha alone",61%
same,inhibition at 125 g/ha,"[7]; Sesbania, post-emergence, Compound 74 125 g/ha alone",84%
same,inhibition at 163 g/ha,"[7]; Sesbania, post-emergence, Compound 74 163 g/ha alone",80%
same,inhibition at 250 g/ha,"[7]; Sesbania, post-emergence, Compound 74 250 g/ha alone",79%
same,ED₉₀,[8]; Compound 74 alone,ED₉₀(g/ha) 41.13
same,inhibition at 2 g/ha,"[8]; Solanum nigrum, post-emergence, Compound 74 2 g/ha alone",15%
same,inhibition at 4 g/ha,"[8]; Solanum nigrum, post-emergence, Compound 74 4 g/ha alone",30%
same,inhibition at 8 g/ha,"[8]; Solanum nigrum, post-emergence, Compound 74 8 g/ha alone",39%
same,inhibition at 16 g/ha,"[8]; Solanum nigrum, post-emergence, Compound 74 16 g/ha alone",60%
same,inhibition at 31 g/ha,"[8]; Solanum nigrum, post-emergence, Compound 74 31 g/ha alone",82%
same,inhibition at 63 g/ha,"[8]; Solanum nigrum, post-emergence, Compound 74 63 g/ha alone",94%
same,ED₉₀,[9]; Compound 74 alone,ED₉₀(g/ha) 166.99
same,inhibition at 8 g/ha,"[9]; Xanthium strumarium, post-emergence, Compound 74 8 g/ha alone",55%
same,inhibition at 16 g/ha,"[9]; Xanthium strumarium, post-emergence, Compound 74 16 g/ha alone",45%
same,inhibition at 31 g/ha,"[9]; Xanthium strumarium, post-emergence, Compound 74 31 g/ha alone",74%
same,inhibition at 125 g/ha,"[9]; Xanthium strumarium, post-emergence, Compound 74 125 g/ha alone",86%
same,inhibition at 163 g/ha,"[9]; Xanthium strumarium, post-emergence, Compound 74 163 g/ha alone",79%
same,inhibition at 250 g/ha,"[9]; Xanthium strumarium, post-emergence, Compound 74 250 g/ha alone",92%
same,% crop phytotoxicity Maize (3 leaves),[10]; Compound 74 63 g/ha,1%
same,% crop phytotoxicity Maize (3 leaves),[10]; Compound 74 125 g/ha,3%
same,% crop phytotoxicity Maize (3 leaves),[10]; Compound 74 250 g/ha,6%
same,% crop phytotoxicity Maize (3 leaves),[10]; Compound 74 500 g/ha,10%
same,% crop phytotoxicity Maize (3 leaves),[10]; Compound 74 1000 g/ha,30%
same,% crop phytotoxicity Maize (3 leaves),[10]; Compound 74 2000 g/ha,58%
same,ED₂₀,[10]; Compound 74 alone,ED₂₀(g/ha) 601
